The results in this text go back to BindingDB's records for doi:10.7270/Q2DF6PMF (Nmmlsc, 2007).

This assay addresses T1, N-formyl peptide receptor 2 (Homo sapiens, UniProt P25090).
T1 sequence (P25090 whole entry): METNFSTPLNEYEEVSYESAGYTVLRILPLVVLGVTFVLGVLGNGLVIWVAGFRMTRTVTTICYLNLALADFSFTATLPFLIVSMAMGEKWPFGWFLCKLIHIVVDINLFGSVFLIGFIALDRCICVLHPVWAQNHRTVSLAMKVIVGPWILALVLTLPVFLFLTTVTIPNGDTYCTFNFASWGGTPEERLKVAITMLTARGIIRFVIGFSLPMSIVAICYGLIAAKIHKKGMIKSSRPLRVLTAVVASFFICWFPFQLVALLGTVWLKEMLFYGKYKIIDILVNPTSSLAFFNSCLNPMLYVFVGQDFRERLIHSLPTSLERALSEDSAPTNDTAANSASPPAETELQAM
The experiment in a line: FPRL1 binding inhibitor potency, dose response, cell-based, FPR counter-screen, fluorescent ligand (AID 520). (In general: A counterscreen serves to expose hits that act by an unwanted route or on another target.)

For `CCOc1ccc(C2C(C(=O)c3cccs3)C(=O)C(=O)N2CCCn2ccnc2)cc1` (configuration not stated) [2-(4-ethoxyphenyl)-1-(3-imidazol-1-ylpropyl)-4-oxidanyl-3-thiophen-2-ylcarbonyl-2H-pyrrol-5-one], the IC50 (commonly the concentration at which inhibition is half-maximal) is more than 66.7 µM; the Ki (usually the dissociation constant of the complex between target and ligand, obtained from inhibition or displacement) is more than 40.3 µM.
The like results for `CCOc1ccc(C2C(C(=O)c3ccco3)C(=O)C(=O)N2CCCn2ccnc2)cc1` (configuration not stated) [2-(4-ethoxyphenyl)-3-(furan-2-carbonyl)-4-hydroxy-1-(3-imidazol-1-ylpropyl)-2H-pyrrol-5-one] were, in that order, more than 66.7 µM and more than 40.3 µM.
Taken in the same sequence, the figures for `CCOc1ccc(C2C(C(=O)c3ccco3)C(=O)C(=O)N2Cc2cccnc2)cc1` (configuration not stated) [2-(4-ethoxyphenyl)-3-(furan-2-carbonyl)-4-hydroxy-1-(pyridin-3-ylmethyl)-2H-pyrrol-5-one] were more than 66.7 µM and more than 40.3 µM.
As for `COC(=O)COc1ccc2c(=O)c(Oc3ccccc3)c(C)oc2c1` [2-(4-keto-2-methyl-3-phenoxy-chromen-7-yl)oxyacetic acid methyl ester], the IC50 is more than 66.7 µM.
On the same count and under the same terms, to `COc1ccc2c(=O)c(N3C(=O)c4ccccc4C3=O)c(C)oc2c1` [2-(4-keto-7-methoxy-2-methyl-chromen-3-yl)isoindoline-1,3-quinone] belongs more than 66.7 µM.
Consider `COc1ccc(CC(=O)Nc2ccc(-c3nnc(-c4ccc(C)cc4)o3)cc2)cc1` [2-(4-methoxyphenyl)-N-[4-[5-(4-methylphenyl)-1,3,4-oxadiazol-2-yl]phenyl]acetamide], for which the IC50 is more than 66.7 µM.
The same measure, in the same setting: to `O=C(O)CC1Oc2ccc(Cl)cc2NC1=O` (configuration not stated) [2-(6-chloranyl-3-oxidanylidene-4H-1,4-benzoxazin-2-yl)ethanoic acid] belongs more than 66.7 µM; to `Cc1cc(SCC(N)=O)nc(SCC(=O)c2ccccc2)n1` [2-(6-methyl-2-phenacylsulfanylpyrimidin-4-yl)sulfanylacetamide], more than 66.7 µM.
The same measure, in the same setting: to `CC(C)CN(CC(C)C)C(=O)CS(=O)(=O)Cc1ccccc1` [2-(benzylsulfonyl)-N,N-diisobutylacetamide] belongs more than 66.7 µM; to `Cc1sc(NC(=O)C2CCCCC2C(=O)O)c(C(N)=O)c1-c1ccc(C(C)(C)C)cc1` (configuration not stated) [2-({[3-(aminocarbonyl)-4-(4-tert-butylphenyl)-5-methyl-2-thienyl]amino}carbonyl)cyclohexanecarboxylic acid], more than 66.7 µM; to `CCc1ccccc1NC(=O)C(C#N)Cc1cccnc1` (configuration not stated) [2-Cyano-N-(2-ethyl-phenyl)-2-pyridin-3-ylmethyl-acetamide], more than 66.7 µM.
On the same count and under the same terms, to `Cc1nn(-c2nc3ccccc3s2)c(C)c1Oc1ccccc1O` [2-[1-(1,3-benzothiazol-2-yl)-3,5-dimethyl-pyrazol-4-yl]oxyphenol] belongs more than 66.7 µM; to `CC1CCN(S(=O)(=O)c2ccc3c(c2)oc(=O)n3CC(=O)NCc2ccc3c(c2)OCO3)CC1` [2-[2-keto-6-(4-methylpiperidino)sulfonyl-1,3-benzoxazol-3-yl]-N-piperonyl-acetamide], more than 66.7 µM.
`CCc1nnc(NC(=O)CSc2nnc(-c3cc4ccccc4cc3O)n2CC)s1` [2-[4-Ethyl-5-(3-hydroxy-naphthalen-2-yl)-4H-[1,2,4]triazol-3-ylsulfanyl]-N-(5-ethyl-[1,3,4]thiadiazol-2-yl)-acetamide] yielded an IC50 of more than 66.7 µM.
As to `COC(=O)Cc1n[nH]c2c1C(C1C=CCCC1)C(C#N)C(=N)O2` (configuration not stated) [2-[6-amino-5-cyano-4-(1-cyclohex-2-enyl)-2,4-dihydropyrano[2,3-c]pyrazol-3-yl]acetic acid methyl ester], the 50% inhibitory concentration (IC50) was more than 66.7 µM and the Ki was more than 40.3 µM.
For the molecule `O=C(O)C1CCCCC1C(=O)Nc1ccccc1Cl` (configuration not stated) [2-[(2-chloroanilino)-oxomethyl]-1-cyclohexanecarboxylic acid], the half-inhibitory concentration (IC50) was more than 66.7 µM.
On the same count and under the same terms, to `CCc1nn2c(=O)cc(CSc3nc4sc5c(c4c(=O)n3C)CCCC5)nc2s1` [2-[(2-ethyl-5-keto-[1,3,4]thiadiazolo[3,2-a]pyrimidin-7-yl)methylthio]-3-methyl-5,6,7,8-tetrahydrobenzothiopheno[2,3-d]pyrimidin-4-one] belongs more than 66.7 µM; to `Cc1ccc(F)c(NC(=O)C2CCCCC2C(=O)O)c1` (configuration not stated) [2-[(2-fluoranyl-5-methyl-phenyl)carbamoyl]cyclohexane-1-carboxylic acid], more than 66.7 µM; to `COc1ccc(C)cc1NC(=O)C1CCCCC1C(=O)O` (configuration not stated) [2-[(2-methoxy-5-methyl-phenyl)carbamoyl]cyclohexane-1-carboxylic acid], more than 66.7 µM.
Same read-out and setting: to `N#Cc1c(C(F)(F)F)cc(-c2ccccc2)nc1SCc1nc(N)nc(N2CCOCC2)n1` [2-[(4-amino-6-morpholin-4-yl-1,3,5-triazin-2-yl)methylsulfanyl]-6-phenyl-4-(trifluoromethyl)pyridine-3-carbonitrile] belongs more than 66.7 µM.
The same measure, in the same setting: to `CCOC(=O)c1c(NC(=O)c2cc(C3CC3)on2)sc2c1CCCC2` [2-[(5-cyclopropylisoxazole-3-carbonyl)amino]-4,5,6,7-tetrahydrobenzothiophene-3-carboxylic acid ethyl ester] belongs more than 66.7 µM; to `COc1cccc(-c2nc(CS(=O)(=O)CC(=O)NCCC(C)C)c(C)o2)c1` [2-[[2-(3-methoxyphenyl)-5-methyl-1,3-oxazol-4-yl]methylsulfonyl]-N-(3-methylbutyl)acetamide], more than 66.7 µM.
With `CCCNC(=O)CS(=O)(=O)Cc1nc(-c2cccc(OC)c2)oc1C` [2-[[2-(3-methoxyphenyl)-5-methyl-1,3-oxazol-4-yl]methylsulfonyl]-N-propyl-ethanamide], the IC50 is more than 66.7 µM.
Turning to `COc1ccc(Cl)cc1-n1c(=S)sc2c(O)nc(SCC(=O)NCC3CCCO3)nc21` (configuration not stated) [2-[[3-(5-chloranyl-2-methoxy-phenyl)-7-oxidanylidene-2-sulfanylidene-4H-[1,3]thiazolo[4,5-d]pyrimidin-5-yl]sulfanyl]-N-(oxolan-2-ylmethyl)ethanamide], the IC50 was more than 66.7 µM.
`O=C(NCC1CCCO1)c1ccc(NC(=O)C2CCCCC2C(=O)O)cc1` (configuration not stated) [2-[[4-(oxolan-2-ylmethylcarbamoyl)phenyl]carbamoyl]cyclohexane-1-carboxylic acid] showed an IC50 of more than 66.7 µM.
On the same count and under the same terms, to `CCOC(=O)CSc1nnc(CNC(=O)c2cc(OCC)c(OCC)c(OCC)c2)n1C` [2-[[4-methyl-5-[[(3,4,5-triethoxybenzoyl)amino]methyl]-1,2,4-triazol-3-yl]thio]acetic acid ethyl ester] belongs 11.2 µM.
`CCOc1cc(C(=O)NCc2nnc(SCC(=O)OC)n2C)cc(OCC)c1OCC` [2-[[4-methyl-5-[[(3,4,5-triethoxybenzoyl)amino]methyl]-1,2,4-triazol-3-yl]thio]acetic acid methyl ester]: the concentration for half-maximal inhibition (IC50) (inactive by the depositor's call) came out at 18.5 µM.
The molecule `CCc1cc2c(=O)c(-c3nc4ccccc4n3C)c(COCC(=O)O)oc2cc1OC(=O)C(C)(C)C` [2-[[7-(2,2-dimethyl-1-oxopropoxy)-6-ethyl-3-(1-methyl-2-benzimidazolyl)-4-oxo-1-benzopyran-2-yl]methoxy]acetic acid] registered an IC50 of more than 66.7 µM.
The same measure, in the same setting: to `CCOC(=O)c1c(NC(=O)C2C3CCC(O3)C2C(=O)O)sc(C)c1-c1ccc(C)cc1` (configuration not stated) [2-[[[3-ethoxycarbonyl-5-methyl-4-(4-methylphenyl)-2-thiophenyl]amino]-oxomethyl]-7-oxabicyclo[2.2.1]heptane-3-carboxylic acid] belongs more than 66.7 µM; to `O=C(NCc1cccnc1)C1c2ccccc2C(=O)N1C1CCCCCC1` (configuration not stated) [2-cycloheptyl-3-keto-N-(3-pyridylmethyl)isoindoline-1-carboxamide], more than 66.7 µM.
Turning to `O=C(NCc1cccnc1)C1c2ccccc2C(=O)N1C1CCCCCCC1` (configuration not stated) [2-cyclooctyl-3-keto-N-(3-pyridylmethyl)isoindoline-1-carboxamide], the IC50 is more than 66.7 µM.
For `CCC(CC)C(=O)Nc1c2cnn(-c3ccccc3)c2nc(=O)n1-c1ccccc1` [2-ethyl-N-(6-keto-1,5-diphenyl-pyrazolo[3,4-d]pyrimidin-4-yl)butyramide], the IC50 is more than 66.7 µM.
Still for that read-out and setting: to `CCOc1ccccc1Oc1c(C)oc2cc(OC(=O)c3ccco3)ccc2c1=O` [2-furancarboxylic acid [3-(2-ethoxyphenoxy)-2-methyl-4-oxo-1-benzopyran-7-yl] ester] belongs more than 66.7 µM.
In the case of `COc1ccccc1Oc1c(C)oc2cc(OC(=O)c3ccco3)ccc2c1=O` [2-furancarboxylic acid [3-(2-methoxyphenoxy)-2-methyl-4-oxo-1-benzopyran-7-yl] ester], the half-inhibitory concentration (IC50) is more than 66.7 µM.
Molecule `CC(C)(C)CC(=O)Nc1ccc(Nc2ccccc2)cc1` [3,3-dimethyl-N-(4-phenylazanylphenyl)butanamide] showed an IC50 of more than 66.7 µM.
`CCCCc1c(O)n(-c2ccccc2)n(-c2ccccc2)c1=O` [3,5-Dioxo-1,2-diphenyl-4-n-butylpyrazolidine] returned an IC50 of more than 66.7 µM and a Ki of more than 40.3 µM.
The like results for `COc1cccc(C2C(C(=O)c3cc4ccccc4o3)C(=O)C(=O)N2c2cc(C)on2)c1OC` (configuration not stated) [3-(1-benzofuran-2-carbonyl)-2-(2,3-dimethoxyphenyl)-4-hydroxy-1-(5-methyl-1,2-oxazol-3-yl)-2H-pyrrol-5-one] were, in that order, more than 66.7 µM and more than 40.3 µM.
Taken in the same sequence, the figures for `COc1ccc(OC)c(C2C(C(=O)c3cc4ccccc4o3)C(=O)C(=O)N2c2cc(C)on2)c1` (configuration not stated) [3-(1-benzofuran-2-carbonyl)-2-(2,5-dimethoxyphenyl)-4-hydroxy-1-(5-methyl-1,2-oxazol-3-yl)-2H-pyrrol-5-one] were more than 66.7 µM and more than 40.3 µM.
The like results for `O=C1C(=O)N(CCCN2CCOCC2)C(c2ccccn2)C1C(=O)c1cc2ccccc2o1` (configuration not stated) [3-(1-benzofuran-2-carbonyl)-4-hydroxy-1-(3-morpholin-4-ylpropyl)-2-pyridin-2-yl-2H-pyrrol-5-one] were, in that order, more than 66.7 µM and more than 40.3 µM.
